According to patent publication US20110039721A1, “METHOD FOR PREDICTION ABOUT CARCINOGENICITY OF SUBSTANCE IN RODENT” (Chemicals Evaluation and Research Institute, priority 2007, published 2011):

Tested on: mRNA expressed from the genes (A) to (D) in rat liver
Experiment: Behavior of genes (mRNA expression level, oligo-DNA microarray) in rat liver after 28-day oral administration
Assay type: in vivo
Details: for Behavior of gene caused by administration of chemical substance, Gene No. 4846 / Behavior of gene caused by administration of chemical substance, Gene No. 2026 / Behavior of gene caused by administration of chemical substance, Gene No. 4218 / Behavior of gene caused by administration of chemical substance, Gene No. 6182 / Behavior of gene caused by administration of chemical substance, Gene No. 5600: gene group (A); for Behavior of gene caused by administration of chemical substance, Gene No. 4846: Unigene No. Rn.144554; for Behavior of gene caused by administration of chemical substance, Gene No. 2026 / Behavior of gene caused by administration of chemical substance, Gene No. 4218: Unigene No. Rn.167075; for Behavior of gene caused by administration of chemical substance, Gene No. 6182: Unigene No. Rn.5834; for Behavior of gene caused by administration of chemical substance, Gene No. 5600: Unigene No. Rn.9836; for Behavior of gene caused by administration of chemical substance, Gene No. 1494 / Behavior of gene caused by administration of chemical substance, Gene No. 2045 / Behavior of gene caused by administration of chemical substance, Gene No. 2203: gene group (B); for Behavior of gene caused by administration of chemical substance, Gene No. 1494: Unigene No. Rn.1430; for Behavior of gene caused by administration of chemical substance, Gene No. 2045: Unigene No. Rn.19329; for Behavior of gene caused by administration of chemical substance, Gene No. 2203: Unigene No. Rn.21240; for Behavior of gene caused by administration of chemical substance, Gene No. 533 / Behavior of gene caused by administration of chemical substance, Gene No. 725 / Behavior of gene caused by administration of chemical substance, Gene No. 1163 / Behavior of gene caused by administration of chemical substance, Gene No. 4973 / Behavior of gene caused by administration of chemical substance, Gene No. 4095 / Behavior of gene caused by administration of chemical substance, Gene No. 1334 / Behavior of gene caused by administration of chemical substance, Gene No. 6620 / Behavior of gene caused by administration of chemical substance, Gene No. 6303 / Behavior of gene caused by administration of chemical substance, Gene No. 5878 / Behavior of gene caused by administration of chemical substance, Gene No. 1131 / Behavior of gene caused by administration of chemical substance, Gene No. 1562 / Behavior of gene caused by administration of chemical substance, Gene No. 1741 / Behavior of gene caused by administration of chemical substance, Gene No. 893 / Behavior of gene caused by administration of chemical substance, Gene No. 6026 / Behavior of gene caused by administration of chemical substance, Gene No. 154 / Behavior of gene caused by administration of chemical substance, Gene No. 1993 / Behavior of gene caused by administration of chemical substance, Gene No. 813 / Behavior of gene caused by administration of chemical substance, Gene No. 2494 / Behavior of gene caused by administration of chemical substance, Gene No. 2546 / Behavior of gene caused by administration of chemical substance, Gene No. 3776 / Behavior of gene caused by administration of chemical substance, Gene No. 3929 / Behavior of gene caused by administration of chemical substance, Gene No. 1119 / Behavior of gene caused by administration of chemical substance, Gene No. 6742 / Behavior of gene caused by administration of chemical substance, Gene No. 5634: gene group (C); for Behavior of gene caused by administration of chemical substance, Gene No. 533: Unigene No. Rn.106184; for Behavior of gene caused by administration of chemical substance, Gene No. 725: Unigene No. Rn.108075; for Behavior of gene caused by administration of chemical substance, Gene No. 1163: Unigene No. Rn.11766; for Behavior of gene caused by administration of chemical substance, Gene No. 4973: Unigene No. Rn.118529; for Behavior of gene caused by administration of chemical substance, Gene No. 4095: Unigene No. Rn.119024; for Behavior of gene caused by administration of chemical substance, Gene No. 1334 / Behavior of gene caused by administration of chemical substance, Gene No. 6620: Unigene No. Rn.120914; for Behavior of gene caused by administration of chemical substance, Gene No. 6303: Unigene No. Rn.123063; for Behavior of gene caused by administration of chemical substance, Gene No. 5878: Unigene No. Rn.143213; for Behavior of gene caused by administration of chemical substance, Gene No. 1131: Unigene No. Rn.144946; for Behavior of gene caused by administration of chemical substance, Gene No. 1562: Unigene No. Rn.14744; for Behavior of gene caused by administration of chemical substance, Gene No. 1741: Unigene No. Rn.1647; for Behavior of gene caused by administration of chemical substance, Gene No. 893: Unigene No. Rn.164817; for Behavior of gene caused by administration of chemical substance, Gene No. 6026: Unigene No. Rn.167685; for Behavior of gene caused by administration of chemical substance, Gene No. 154: Unigene No. Rn.185941; for Behavior of gene caused by administration of chemical substance, Gene No. 1993: Unigene No. Rn.18728; for Behavior of gene caused by administration of chemical substance, Gene No. 813: Unigene No. Rn.201760; for Behavior of gene caused by administration of chemical substance, Gene No. 2494: Unigene No. Rn.23969; for Behavior of gene caused by administration of chemical substance, Gene No. 2546: Unigene No. Rn.24561; for Behavior of gene caused by administration of chemical substance, Gene No. 3776: Unigene No. Rn.43232; for Behavior of gene caused by administration of chemical substance, Gene No. 3929: Unigene No. Rn.4620; for Behavior of gene caused by administration of chemical substance, Gene No. 1119: Unigene No. Rn.9757; for Behavior of gene caused by administration of chemical substance, Gene No. 6742: Unigene No. Rn.9779; for Behavior of gene caused by administration of chemical substance, Gene No. 5634: Unigene No. Rn.9862; for Behavior of gene caused by administration of chemical substance, Gene No. 5726: gene group (D), Unigene No. Rn.9939
Protocol: A test solution was prepared by dissolving each of the carcinogens and the non-carcinogens shown in Tables 2 to 6 in the corresponding solvent shown in Tables 2 to 6. Each of the thus prepared test solutions and the solvents used for the preparation was administered by oral gavage to rats in each group. As the rats, male rats (F344 SPF rats) at 5 weeks of age obtained from Charles River Laboratories Japan, Inc. were used. The animals were divided into groups, each containing four individuals. The volume of the solvent administered to the vehicle control group was set to the same volume as that of the test solution administered to the carcinogen administration group or the non-carcinogen administration group. The administration of the test solution or the solvent was performed once daily for 28 days. Apiece was excised from the liver of each of the rats after a lapse of 28 days from the initiation of the administration, and the total RNA was extracted and purified.
The expression level of mRNA was compared between each of the chemical substance administration groups and the corresponding vehicle control group, and genes that satisfy the requirements described in (A) to (D) were selected, respectively.
The case where the expression level of mRNA in the carcinogen administration group or the non-carcinogen administration group is 1.5 times or more or 1/1.5 or less of the expression level of the corresponding mRNA expressed in the control group was determined to be significant. In this connection, the determination as to whether or not the change is significant was performed by taking into consideration the direction of increase or decrease in the expression level. In the case where the direction of increase or decrease is different as compared with the case where another carcinogen was administered, the change was determined to be not significant.

Row | Compound | Behavior of gene caused by administration of chemical substance, Gene No. 4846 | Behavior of gene caused by administration of chemical substance, Gene No. 2026 | Behavior of gene caused by administration of chemical substance, Gene No. 4218 | Behavior of gene caused by administration of chemical substance, Gene No. 6182 | Behavior of gene caused by administration of chemical substance, Gene No. 5600 | Behavior of gene caused by administration of chemical substance, Gene No. 1494 | Behavior of gene caused by administration of chemical substance, Gene No. 2045 | Behavior of gene caused by administration of chemical substance, Gene No. 2203 | Behavior of gene caused by administration of chemical substance, Gene No. 533 | Behavior of gene caused by administration of chemical substance, Gene No. 725 | Behavior of gene caused by administration of chemical substance, Gene No. 1163 | Behavior of gene caused by administration of chemical substance, Gene No. 4973 | Behavior of gene caused by administration of chemical substance, Gene No. 4095 | Behavior of gene caused by administration of chemical substance, Gene No. 1334 | Behavior of gene caused by administration of chemical substance, Gene No. 6620 | Behavior of gene caused by administration of chemical substance, Gene No. 6303 | Behavior of gene caused by administration of chemical substance, Gene No. 5878 | Behavior of gene caused by administration of chemical substance, Gene No. 1131 | Behavior of gene caused by administration of chemical substance, Gene No. 1562 | Behavior of gene caused by administration of chemical substance, Gene No. 1741 | further results
1 | CC(=O)Nc1ccc(O)cc1 [TS031, Acetaminophen] | − | + | − | − | − | + | − | − | + | − | − | − | − | − | − | − | − | − | − | + | Behavior of gene caused by administration of chemical substance, Gene No. 893: −; Behavior of gene caused by administration of chemical substance, Gene No. 6026: −; Behavior of gene caused by administration of chemical substance, Gene No. 154: −; Behavior of gene caused by administration of chemical substance, Gene No. 1993: −; Behavior of gene caused by administration of chemical substance, Gene No. 813: −; Behavior of gene caused by administration of chemical substance, Gene No. 2494: −; Behavior of gene caused by administration of chemical substance, Gene No. 2546: +; Behavior of gene caused by administration of chemical substance, Gene No. 3776: −; Behavior of gene caused by administration of chemical substance, Gene No. 3929: −; Behavior of gene caused by administration of chemical substance, Gene No. 1119: −; Behavior of gene caused by administration of chemical substance, Gene No. 6742: +; Behavior of gene caused by administration of chemical substance, Gene No. 5634: −; Behavior of gene caused by administration of chemical substance, Gene No. 5726: −
2 | C[C@H](CCC(=O)O)[C@H]1CC[C@H]2[C@@H]3CC[C@@H]4C[C@H](O)CC[C@]4(C)[C@H]3CC[C@]12C [TS040, Lithocholic acid] | − | − | − | − | − | − | − | − | − | − | − | − | − | − | − | − | − | − | − | − | Behavior of gene caused by administration of chemical substance, Gene No. 893: −; Behavior of gene caused by administration of chemical substance, Gene No. 6026: −; Behavior of gene caused by administration of chemical substance, Gene No. 154: −; Behavior of gene caused by administration of chemical substance, Gene No. 1993: −; Behavior of gene caused by administration of chemical substance, Gene No. 813: −; Behavior of gene caused by administration of chemical substance, Gene No. 2494: −; Behavior of gene caused by administration of chemical substance, Gene No. 2546: −; Behavior of gene caused by administration of chemical substance, Gene No. 3776: −; Behavior of gene caused by administration of chemical substance, Gene No. 3929: −; Behavior of gene caused by administration of chemical substance, Gene No. 1119: −; Behavior of gene caused by administration of chemical substance, Gene No. 6742: +; Behavior of gene caused by administration of chemical substance, Gene No. 5634: −; Behavior of gene caused by administration of chemical substance, Gene No. 5726: −
